The values that follow come from patent publication US20230085307A1, “PYRIDAZINONE COMPOUND AND HERBICIDE” (NISSAN CHEMICAL CORPORATION, priority 2019, published 2023).

One assay relates to oval-leafed pondweed. The assay is described as follows: Test Example 1: herbicidal activity, application before weed generation under submerged conditions (Table 16, symbol C). It is filed as in vivo, oval-leafed pondweed (Monochoria vaginalis). The note with it: amount of applied herbicide 320 g/ha. In outline: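 Emulsion formulation, water-diluted to set dose, was put onto the flooded surface (4 cm depth, alluvial soil) the same day weeds were sown and 2.5-leaf rice transplanted. After 3 weeks at 25-30 °C under glass, each species was rated 0 (≤5% kill) to 5 (≥90% kill).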

Assay [1] concerns lambsquarters. Put plainly: Test Example 5: herbicidal effect by foliage application, plastic box (Table 20, symbol O). It is filed as in vivo, lambsquarters (Chenopodium album). The settings on record: foliage application, 320 g/ha, three weeks after application. In outline: (§1)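 Post-emergence foliar test in sterilized diluvial soil. Compound applied as water-diluted emulsion at a predetermined rate to 14-day-old plants; evaluation at three weeks.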

The test system of another assay is southern crabgrass. The assay is described as follows: Test Example 5: herbicidal effect by foliage application, plastic box (Table 20, symbol F). The format is in vivo, southern crabgrass (Digitaria ciliaris). The settings on record: foliage application, 320 g/ha, three weeks after application. An outline of the steps: as §1
For the next assay, the system named is barnyard grass. Put plainly: Test Example 3: herbicidal effect by foliage application, Wagner pot (Table 18, symbol H). It is filed as in vivo, barnyard grass (Echinochloa crus-galli). The settings on record: amount of applied herbicide 320 g/ha. An outline of the steps:
(§2)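 Plants were sown in alluvial soil held under 0.1–0.5 cm standing water and grown 14 days in a greenhouse at 25–30 °C. An emulsifiable formulation, water-diluted to the set dose, was then sprayed onto the foliage, and effects were scored three weeks later using previously defined criteria.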

Assay [2] relates to persian speedwell. Put plainly: Test Example 5: herbicidal effect by foliage application, plastic box (Table 20, symbol R). It is filed as in vivo, Persian speedwell (Veronica persica). The note with it: foliage application, 320 g/ha, three weeks after application. An outline of the steps: as §1
The subject of assay [3] is windgrass. Put plainly: Test Example 5: herbicidal effect by foliage application, plastic box (Table 20, symbol L). The format is in vivo, windgrass (Apera spica-venti). The note with it: foliage application, 320 g/ha, three weeks after application. An outline of the steps: as §1
The next assay has as its system Chinese sprangletop. The assay is described as follows: Test Example 3: herbicidal effect by foliage application, Wagner pot (Table 18, symbol D). The format is in vivo, chinese sprangletop (Leptochloa chinensis). The settings on record: amount of applied herbicide 320 g/ha. An outline of the steps: as §2
In assay [4] the test system is velvetleaf. Put plainly: Test Example 5: herbicidal effect by foliage application, plastic box (Table 20, symbol M). It is filed as in vivo, velvetleaf (Abutilon theophrasti). The note with it: foliage application, 320 g/ha, three weeks after application. An outline of the steps: as §1
In assay [5] the test system is persian speedwell. Put plainly: Test Example 4: herbicidal effect by soil treatment (Table 19, symbol R). It is filed as in vivo, Persian speedwell (Veronica persica). The settings on record: amount of applied herbicide 320 g/ha. In outline:
(§3)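 Scoring uses the grading scale of an earlier test, three weeks post-application. Treatment consists of spraying a diluted emulsion formulation across the surface of sterilized diluvial soil in which seeds are buried near 1.5 cm deep; boxes are kept in a greenhouse between 25° C. and 30° C.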

In a further assay the test system is green foxtail. The assay is described as follows: Test Example 4: herbicidal effect by soil treatment (Table 19, symbol G). It is filed as in vivo, green foxtail (Setaria viridis). The note with it: amount of applied herbicide 320 g/ha. An outline of the steps: as §3
Assay [6] concerns lambsquarters. The assay is described as follows: Test Example 4: herbicidal effect by soil treatment (Table 19, symbol O). The format is in vivo, lambsquarters (Chenopodium album). The note with it: amount of applied herbicide 320 g/ha. An outline of the steps:
as §3

Assay [7] has as its system windgrass. Put plainly: Test Example 4: herbicidal effect by soil treatment (Table 19, symbol L). The format is in vivo, windgrass (Apera spica-venti). The settings on record: amount of applied herbicide 320 g/ha. An outline of the steps: as §3
The test system of assay [8] is velvetleaf. The assay is described as follows: Test Example 4: herbicidal effect by soil treatment (Table 19, symbol M). The format is in vivo, velvetleaf (Abutilon theophrasti). The settings on record: amount of applied herbicide 320 g/ha. In outline: as §3
A further assay deals with rice flat sedge. Put plainly: Test Example 3: herbicidal effect by foliage application, Wagner pot (Table 18, symbol E). It is filed as in vivo, rice flat sedge (Cyperus iria). The note with it: amount of applied herbicide 320 g/ha. An outline of the steps:
as §2

Another assay deals with chickweed. Put plainly: Test Example 4: herbicidal effect by soil treatment (Table 19, symbol P). The format is in vivo, common chickweed (Stellaria media). The settings on record: amount of applied herbicide 320 g/ha. In outline: as §3
In the next assay the test system is Italian ryegrass. The assay is described as follows: Test Example 5: herbicidal effect by foliage application, plastic box (Table 20, symbol K). The format is in vivo, Italian ryegrass (Lolium multiflorum). The settings on record: foliage application, 320 g/ha, three weeks after application. In outline:
as §1

The subject of a further assay is late watergrass. Put plainly: Test Example 2: herbicidal activity, application during weed generation under submerged conditions (Table 17, symbol A). The format is in vivo, late watergrass (Echinochloa oryzicola). The settings on record: AAH 320 g/ha; application during weed generation, submerged conditions. An outline of the steps:
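Alluvial soil in Wagner pots was flooded to 4 cm depth and sown with the three weeds together; pots were kept in a greenhouse at 25° C. to 30° C. At the one to two leaf stage, an emulsion formulation diluted in water to a set rate went onto the water surface; scored three weeks later.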

For the compound `CCCC(=O)Oc1c(C)nn(C)c(=O)c1-c1c(-c2ccc(F)cc2OC)sc2cc(F)ccc12` [3-010], in the assay with oval-leafed pondweed, the “Herbicidal effect, C: oval-leafed pondweed” value is 3 (Herbicidal rate of 40% or more and less than 70%). Also, the “O: lambsquarters, herbicidal effect grade” value with lambsquarters [1] is on record as 5 (Herbicidal rate of 90% or more (almost completely withered)). In addition, the “F: southern crabgrass, herbicidal effect grade” value in the assay on southern crabgrass is 3 (Herbicidal rate of 40% or more and less than 70%). Besides, the “herbicidal effect on H: barnyard grass” value with barnyard grass is on record as 5 (Herbicidal rate of 90% or more (almost completely withered)). For the same compound, the “R: persian speedwell, herbicidal effect grade” value in the assay on persian speedwell [2] was 5 (Herbicidal rate of 90% or more (almost completely withered)). Further, in the assay on windgrass [3], the “L: windgrass, herbicidal effect grade” value is 5 (Herbicidal rate of 90% or more (almost completely withered)). The “herbicidal effect on D: Chinese sprangletop” value in the assay on Chinese sprangletop is 0 (Herbicidal rate of 5% or less (almost no effect)). For the same compound, the “M: velvetleaf, herbicidal effect grade” value in the assay with velvetleaf [4] is 5 (Herbicidal rate of 90% or more (almost completely withered)). Besides, the “herbicidal effect, R: persian speedwell” value with persian speedwell [5] was 5 (Herbicidal rate of 90% or more (almost completely withered)). Besides, the “herbicidal effect, G: green foxtail” value in the assay with green foxtail is 3 (Herbicidal rate of 40% or more and less than 70%). The “herbicidal effect, O: lambsquarters” value in the assay with lambsquarters [6] is listed as 5 (Herbicidal rate of 90% or more (almost completely withered)). Moreover, the “herbicidal effect, L: windgrass” value with windgrass [7] is 4 (Herbicidal rate of 70% or more and less than 90%). Moreover, the “herbicidal effect, M: velvetleaf” value in the assay on velvetleaf [8] was 0 (Herbicidal rate of 5% or less (almost no effect)). Also, the “herbicidal effect on E: rice flat sedge” value with rice flat sedge was 4 (Herbicidal rate of 70% or more and less than 90%). Further, the “herbicidal effect, P: chickweed” value in the assay with chickweed is 4 (Herbicidal rate of 70% or more and less than 90%). Also, in the assay on Italian ryegrass, the “K: Italian ryegrass, herbicidal effect grade” value was 4 (Herbicidal rate of 70% or more and less than 90%). The “herbicidal effect rating, A: late watergrass” value in the assay with late watergrass was 3 (Herbicidal rate of 40% or more and less than 70%).
For the compound `CCOc1cc(F)ccc1-c1sc2cc(F)ccc2c1-c1c(O)c(C)nn(C)c1=O` [3-011], in the assay with oval-leafed pondweed, the “Herbicidal effect, C: oval-leafed pondweed” value is 3 (Herbicidal rate of 40% or more and less than 70%). Besides, the “O: lambsquarters, herbicidal effect grade” value in the assay with lambsquarters [1] was 5 (Herbicidal rate of 90% or more (almost completely withered)). Further, the “F: southern crabgrass, herbicidal effect grade” value with southern crabgrass is listed as 5 (Herbicidal rate of 90% or more (almost completely withered)). The “herbicidal effect on H: barnyard grass” value in the assay with barnyard grass is 5 (Herbicidal rate of 90% or more (almost completely withered)). For the same compound, in the assay on persian speedwell [2], the “R: persian speedwell, herbicidal effect grade” value was 5 (Herbicidal rate of 90% or more (almost completely withered)). In the assay with windgrass [3], the “L: windgrass, herbicidal effect grade” value is 5 (Herbicidal rate of 90% or more (almost completely withered)). Moreover, in the assay with Chinese sprangletop, the “herbicidal effect on D: Chinese sprangletop” value is 4 (Herbicidal rate of 70% or more and less than 90%). Also, the “M: velvetleaf, herbicidal effect grade” value in the assay on velvetleaf [4] was 5 (Herbicidal rate of 90% or more (almost completely withered)). The “herbicidal effect, R: persian speedwell” value with persian speedwell [5] is 4 (Herbicidal rate of 70% or more and less than 90%). Moreover, the “herbicidal effect, G: green foxtail” value in the assay on green foxtail is listed as 5 (Herbicidal rate of 90% or more (almost completely withered)). Moreover, the “herbicidal effect, O: lambsquarters” value in the assay on lambsquarters [6] is 5 (Herbicidal rate of 90% or more (almost completely withered)). Further, in the assay with windgrass [7], the “herbicidal effect, L: windgrass” value is reported as 5 (Herbicidal rate of 90% or more (almost completely withered)). In addition, the “herbicidal effect, M: velvetleaf” value in the assay with velvetleaf [8] is 4 (Herbicidal rate of 70% or more and less than 90%). Besides, the “herbicidal effect on E: rice flat sedge” value in the assay with rice flat sedge was 5 (Herbicidal rate of 90% or more (almost completely withered)). The “herbicidal effect, P: chickweed” value in the assay on chickweed was 4 (Herbicidal rate of 70% or more and less than 90%). Moreover, the “K: Italian ryegrass, herbicidal effect grade” value in the assay with Italian ryegrass was 5 (Herbicidal rate of 90% or more (almost completely withered)). In addition, the “herbicidal effect rating, A: late watergrass” value with late watergrass was 3 (Herbicidal rate of 40% or more and less than 70%).
